Legend:
[1] = test system: peptide-pulsed A24LCL cells; test: IFN-gamma ELISPOT assay on CTLs induced with CDCA1 peptides; assay type: cell-based, human; settings: CTLs from HLA-A*2402 positive donor vs peptide-pulsed target cells, compared with the control
Description: Monocyte-derived dendritic cells (DCs) were used as antigen-presenting cells (APCs) to induce cytotoxic T lymphocyte (CTL) responses against peptides presented on human leukocyte antigen (HLA). DCs were generated in vitro as described elsewhere (Nakahara S et al., Cancer Res 2003 Jul. 15, 63(14): 4112-8). Specifically, peripheral blood mononuclear cells (PBMCs) isolated from a normal volunteer (HLA-A*2402 positive) by Ficoll-Plaque (Pharmacia) solution were separated by adherence to a plastic tissue culture dish (Becton Dickinson) so as to enrich them as the monocyte fraction. The monocyte-enriched population was cultured in the presence of 1000 U/ml of granulocyte-macrophage colony-stimulating factor (GM-CSF) (R&D System) and 1000 U/ml of interleukin (IL)-4 (R&D System) in AIM-V Medium (Invitrogen) containing 2% heat-inactivated autologous serum (AS). After 7 days of culture, the cytokine-induced DCs were pulsed with 20 micro g/ml of each of the synthesized peptides in the presence of 3 micro g/ml of beta 2-microglobulin for 3 hr at 37 degrees C. in AIM-V Medium. The generated cells appeared to express DC-associated molecules, such as CD80, CD83, CD86 and HLA class II, on their cell surfaces (data not shown). These peptide-pulsed DCs were then inactivated by Mitomycin C (MMC) (30 micro g/ml for 30 min) and mixed at a 1:20 ratio with autologous CD8+ T cells, obtained by positive selection with CD8 Positive Isolation Kit (Dynal). These cultures were set up in 48-well plates (Corning); each well contained 1.5×10^4 peptide-pulsed DCs, 3×10^5 CD8+ T cells and 10 ng/ml of IL-7 (R&D System) in 0.5 ml of AIM-V/2% AS medium. Three days later, these cultures were supplemented with IL-2 (CHIRON) to a final concentration of 20 IU/ml. On day 7 and 14, the T cells were further stimulated with the autologous peptide-pulsed DCs. The DCs were prepared each time by the same way described above. CTL was tested against peptide-pulsed A24LCL cells after the 3rd round of peptide stimulation on day 21 (Tanaka H et al., Br J Cancer 2001 Jan. 5, 84(1): 94-9; Umano Y et al., Br J Cancer 2001 Apr. 20, 84(8): 1052-7; Uchida N et al., Clin Cancer Res 2004 Dec. 15, 10(24): 8577-86; Suda T et al., Cancer Sci 2006 May, 97(5): 411-9; Watanabe T et al., Cancer Sci 2005 August, 96(8): 498-506).
(§1) To examine specific CTL activity, interferon (IFN)-gamma enzyme-linked immunospot (ELISPOT) assay and IFN-gamma enzyme-linked immunosorbent assay (ELISA) were performed. Specifically, peptide-pulsed A24LCL (1×10^4/well) was prepared as stimulator cells. Cultured cells in 48 wells were used as responder cells. IFN-gamma ELISPOT assay and IFN-gamma ELISA assay were performed under manufacture procedure.

[2] = test system: peptide-pulsed A24LCL cells; test: IFN-gamma ELISA assay on CTL lines established with CDCA1 peptides; assay type: cell-based, human; settings: CTL line vs peptide-pulsed target cells, compared with target cells not pulsed
Procedure: CTLs were expanded in culture using the method similar to the one described by Riddell et al. (Walter E A et al., N Engl J Med 1995 Oct. 19, 333(16): 1038-44; Riddell S R et al., Nat Med 1996 February, 2(2): 216-23). A total of 5×10^4 CTLs were suspended in 25 ml of AIM-V/5% AS medium with 2 kinds of human B-lymphoblastoid cell lines, inactivated by MMC, in the presence of 40 ng/ml of anti-CD3 monoclonal antibody (Pharmingen). One day after initiating the cultures, 120 IU/ml of IL-2 were added to the cultures. The cultures were fed with fresh AIM-V/5% AS medium containing 30 IU/ml of IL-2 on days 5, 8 and 11 (Tanaka H et al., Br J Cancer 2001 Jan. 5, 84(1): 94-9; Umano Y et al., Br J Cancer 2001 Apr. 20, 84(8): 1052-7; Uchida N et al., Clin Cancer Res 2004 Dec. 15, 10(24): 8577-86; Suda T et al., Cancer Sci 2006 May, 97(5): 411-9; Watanabe T et al., Cancer Sci 2005 August, 96(8): 498-506).
as §1

[3] = test system: target cells pulsed with peptide; test: IFN-gamma ELISA assay on CTL clone established by limiting dilution; assay type: cell-based, human; settings: CTL clone by limiting dilution vs peptide-pulsed target cells, compared with the control
Procedure: The dilutions were made to have 0.3, 1, and 3 CTLs/well in 96 round-bottomed micro titer plate (Nalge Nunc International). CTLs were cultured with 1×10^4 cells/well of 2 kinds of human B-lymphoblastoid cell lines, 30 ng/ml of anti-CD3 antibody, and 125 U/ml of IL-2 in a total of 150 micro 1/well of AIM-V Medium containing 5% AS. 50 micro 1/well of IL-2 were added to the medium 10 days later so to reach a final concentration of 125 U/ml IL-2. CTL activity was tested on the 14th day, and CTL clones were expanded using the same method as described above (Uchida N et al., Clin Cancer Res 2004 Dec. 15, 10(24): 8577-86; Suda T et al., Cancer Sci 2006 May, 97(5): 411-9; Watanabe T et al., Cancer Sci 2005 August, 96(8): 498-506).
as §1

[4] = test system: COS7 cells transfected with CDCA1 and HLA-A*2402; test: Specific CTL activity against target cells exogenously expressing CDCA1 and HLA-A*2402; assay type: cell-based
Description: The cDNA encoding an open reading frame of target genes or HLA-A24 was amplified by PCR. The PCR-amplified product was cloned into pCAGGS vector. The plasmids were transfected into COS7, which is the target genes and HLA-A24-null cell line, using lipofectamine 2000 (Invitrogen) according to the manufacturer's recommended procedures. After 2 days from transfection, the transfected cells were harvested with versene (Invitrogen) and used as the target cells (5×10^4 cells/well) for CTL activity assay.
The established CTL lines raised against these peptides were examined for their ability to recognize target cells that exogenously express CDCA1 and HLA-A*2402 molecule. Specific CTL activity against COS7 cells which transfected with both the full length of CDCA1 and HLA-A*2402 molecule gene (a specific model for the target cells that exogenously express CDCA1 and HLA-A*2402 gene) was tested using the CTL lines raised by corresponding peptide as the effecter cells. COS7 cells transfected with either full length of CDCA1 genes or HLA-A*2402 were prepared as control.

| Sequence | IFN-gamma production of induced CTLs (ELISPOT) [1] | IFN-gamma production of CTL line (ELISA) [2] | IFN-gamma production of CTL clone (ELISA) [3] | specific CTL activity ([4]; CTL clone vs COS7 cells transfected with both CDCA1 and HLA-A*2402) | specific CTL activity ([4]; CTL clone vs target cells expressing either HLA-A*2402 or CDCA1 (controls)) |
| --- | --- | --- | --- | --- | --- |
| IYMRALQIVY [SEQ ID NO: 11, 10-mer peptide derived from CDCA1, start position 48] | potent IFN-gamma production | potent IFN-gamma production |  |  |  |
| MYPHLMEGFL [SEQ ID NO: 2, 10-mer peptide derived from CDCA1, start position 74] | no specific IFN-gamma production | no specific IFN-gamma production |  |  |  |
| SFPRYNVAEI [SEQ ID NO: 14, 10-mer peptide derived from CDCA1, start position 5] | potent IFN-gamma production | potent IFN-gamma production |  |  |  |
| RFLSGIINFI [SEQ ID NO: 3, 10-mer peptide derived from CDCA1, start position 119] | potent IFN-gamma production | potent IFN-gamma production |  |  |  |
| RYNVAEIVI [SEQ ID NO: 22, 9-mer peptide derived from CDCA1, start position 8] | potent IFN-gamma production | potent IFN-gamma production |  |  |  |
| KTEENSFKRL [SEQ ID NO: 4, 10-mer peptide derived from CDCA1, start position 335] | potent IFN-gamma production | potent IFN-gamma production |  |  |  |
| VYGIRLEHF [SEQ ID NO: 23, 9-mer peptide derived from CDCA1, start position 56] | potent IFN-gamma production | potent IFN-gamma production | potent IFN-gamma production | high specific CTL activity | no significant specific CTL activity |

Source: patent publication US9387238B2, “CDCA1 epitope peptides and vaccines containing the same” (OncoTherapy Science, Inc., priority 2008, dated 2016)
